# Experimental data: US20180139985A1 (priority 2015, published 2018)
# Like-named read-outs stand apart in the source and are kept apart here. Bridge positions count the residues as written; N and C are the ends. Square brackets hold non-standard residues; d marks the D form. Peptide text beside a SMILES is read from it. * marks the point of attachment. Ileψ(thiazoline)Cys = CC[C@H](C)[C@H](N)C1=N[C@H](C(=O)*)CS1; dOrn = NCCC[C@@H](N)C(=O)O
# How the values were obtained:
# [1] = system: Clostridium perfringens CP-013; format: in vivo, broiler chicken; settings: for % Weight gain 1 to 14 d / % Weight gain 1 to 28 d / % Weight gain 14 to 28 d: [(final weight − initial weight)/initial weight] × 100; for Mean body weight (g) 1-d: day 1 (starting weight), n = 30
# Clostridium perfringens = format: in vivo, broiler chicken; settings: for Mean CFU per gram of chicken feces on Day 28 (n = 24): final day of study; for Mean CFU per gram of chicken feces on Day 21 (n = 6): five days after final challenge; for Mean CFU per gram of chicken feces on Day 10 (n = 10): pre-challenge
Compound,% Weight gain 1 to 14 d ([1]; 55 ppm in feed) [%],% Weight gain 1 to 28 d ([1]; 55 ppm in feed) [%],% Weight gain 14 to 28 d ([1]; 55 ppm in feed) [%],Mean body weight (g) 1-d ([1]; 55 ppm in feed) [g],Mean CFU per gram of chicken feces on Day 28 (n = 24) (Clostridium perfringens; 55 ppm in feed) [CFU per gram],Mean CFU per gram of chicken feces on Day 21 (n = 6) (Clostridium perfringens; 55 ppm in feed),Mean CFU per gram of chicken feces on Day 10 (n = 10) (Clostridium perfringens; 55 ppm in feed),% Weight gain 1 to 14 d ([1]; 2 ppm in feed) [%],% Weight gain 1 to 28 d ([1]; 2 ppm in feed) [%],% Weight gain 14 to 28 d ([1]; 2 ppm in feed) [%],Mean body weight (g) 1-d ([1]; 2 ppm in feed) [g],Mean CFU per gram of chicken feces on Day 28 (n = 24) (Clostridium perfringens; 2 ppm in feed) [CFU per gram],Mean CFU per gram of chicken feces on Day 21 (n = 6) (Clostridium perfringens; 2 ppm in feed) [CFU per gram],Mean CFU per gram of chicken feces on Day 10 (n = 10) (Clostridium perfringens; 2 ppm in feed)
CC[C@H](C)[C@H](N)C1=N[C@H](C(=O)N[C@@H](CC(C)C)C(=O)N[C@H](CCC(=O)O)C(=O)N[C@H](C(=O)N[C@H]2CCCCNC(=O)[C@H](CC(N)=O)NC(=O)[C@@H](CC(=O)O)NC(=O)[C@H](Cc3cnc[nH]3)NC(=O)[C@@H](Cc3ccccc3)NC(=O)[C@H]([C@@H](C)CC)NC(=O)[C@@H](CCCN)NC2=O)[C@@H](C)CC)CS1 [Bacitracin] ({Ileψ(thiazoline)Cys}-L[dE]IK[dOrn]I[dF]H[dD]N; lactam 4-C),941.1,3566.0,252.1,44.4,0.0,2.5 × 10^1 ± 9.6 ^ CFU per gram,8.6 × 10^2 ± 1.6 × 10^2 CFU per gram,–,–,–,–,–,–,–
Virginiamycin,–,–,–,–,–,–,–,1024.7,3532.8,223.0,44.5,0.0,0.0,1.1 × 10^3 ± 2.2 × 10^2 CFU per gram
